Assay results reported in patent US8633206B2, “Pyrrolo[2,3-D]pyrimidine compounds” (Pfizer Inc., priority 2009, dated 2014).

How the values were obtained:
[1] = biological target: JAK1 (Homo sapiens (Human), UniProt P23458); assay: JAK enzymatic assay (peptide mobility shift), JAK1; assay type: biochemical; settings: recombinant JAK1 20 nM, IRS-1 peptide, 240 minutes
Procedure: (§1) Recombinant JAK1 (Catalog Number PV4775), JAK2 (Catalog Number PV4210) and JAK3 (Catalog Number PV3855) were purchased from (Invitrogen Corporation, Madison, Wis.). […] Adenosine 5′-triphosphate (ATP) was obtained from (Sigma Chemical Company, St. Louis, Mo.). […] Coating Reagent 3 was purchased from (Caliper Life Sciences, Hopkinton, Mass.).
(§2) Compounds were diluted serially in 100% dimethyl sulfoxide and tested in an 11 point dose response in duplicate or quadruplicate (200 nl of compound/DMSO was added per 10 L reaction). […] The assay was run for 240 minutes for JAK1, 150 minutes for JAK2, 90 minutes for JAK3 and 70 minutes for Tyk2. […] The plates were placed on a LabChip 3000 (LC3000) instrument from (Caliper Life Sciences) to measure the formation of phosphorylated peptide. Data was analyzed using Hits Well Analyzer Software from (Caliper Life Sciences) to obtain the amount of product formed.
(§3) Data was then imported into an internal application where each data point is expressed as % inhibition based on uninhibited and no enzyme controls. Dose-response data is then fit using a 4 parameter logistic equation (Equation 1) to determine an IC50.

[2] = biological target: JAK3 (Homo sapiens (Human), UniProt P52333); assay: JAK enzymatic assay (peptide mobility shift), JAK3; assay type: biochemical; settings: recombinant JAK3 1 nM, JAKtide peptide, 90 minutes
Procedure: as §1, §2, §3

JAK3, sequence (P52333 781-1124): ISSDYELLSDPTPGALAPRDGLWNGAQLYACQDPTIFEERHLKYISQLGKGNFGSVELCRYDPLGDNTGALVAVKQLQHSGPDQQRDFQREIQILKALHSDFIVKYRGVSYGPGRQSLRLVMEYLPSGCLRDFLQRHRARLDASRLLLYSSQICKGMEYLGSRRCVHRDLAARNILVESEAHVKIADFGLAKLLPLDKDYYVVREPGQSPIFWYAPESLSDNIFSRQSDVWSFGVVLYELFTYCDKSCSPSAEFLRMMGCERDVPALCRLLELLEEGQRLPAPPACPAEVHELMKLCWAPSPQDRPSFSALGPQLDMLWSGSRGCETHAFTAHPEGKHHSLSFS
JAK1, sequence (P23458 whole entry): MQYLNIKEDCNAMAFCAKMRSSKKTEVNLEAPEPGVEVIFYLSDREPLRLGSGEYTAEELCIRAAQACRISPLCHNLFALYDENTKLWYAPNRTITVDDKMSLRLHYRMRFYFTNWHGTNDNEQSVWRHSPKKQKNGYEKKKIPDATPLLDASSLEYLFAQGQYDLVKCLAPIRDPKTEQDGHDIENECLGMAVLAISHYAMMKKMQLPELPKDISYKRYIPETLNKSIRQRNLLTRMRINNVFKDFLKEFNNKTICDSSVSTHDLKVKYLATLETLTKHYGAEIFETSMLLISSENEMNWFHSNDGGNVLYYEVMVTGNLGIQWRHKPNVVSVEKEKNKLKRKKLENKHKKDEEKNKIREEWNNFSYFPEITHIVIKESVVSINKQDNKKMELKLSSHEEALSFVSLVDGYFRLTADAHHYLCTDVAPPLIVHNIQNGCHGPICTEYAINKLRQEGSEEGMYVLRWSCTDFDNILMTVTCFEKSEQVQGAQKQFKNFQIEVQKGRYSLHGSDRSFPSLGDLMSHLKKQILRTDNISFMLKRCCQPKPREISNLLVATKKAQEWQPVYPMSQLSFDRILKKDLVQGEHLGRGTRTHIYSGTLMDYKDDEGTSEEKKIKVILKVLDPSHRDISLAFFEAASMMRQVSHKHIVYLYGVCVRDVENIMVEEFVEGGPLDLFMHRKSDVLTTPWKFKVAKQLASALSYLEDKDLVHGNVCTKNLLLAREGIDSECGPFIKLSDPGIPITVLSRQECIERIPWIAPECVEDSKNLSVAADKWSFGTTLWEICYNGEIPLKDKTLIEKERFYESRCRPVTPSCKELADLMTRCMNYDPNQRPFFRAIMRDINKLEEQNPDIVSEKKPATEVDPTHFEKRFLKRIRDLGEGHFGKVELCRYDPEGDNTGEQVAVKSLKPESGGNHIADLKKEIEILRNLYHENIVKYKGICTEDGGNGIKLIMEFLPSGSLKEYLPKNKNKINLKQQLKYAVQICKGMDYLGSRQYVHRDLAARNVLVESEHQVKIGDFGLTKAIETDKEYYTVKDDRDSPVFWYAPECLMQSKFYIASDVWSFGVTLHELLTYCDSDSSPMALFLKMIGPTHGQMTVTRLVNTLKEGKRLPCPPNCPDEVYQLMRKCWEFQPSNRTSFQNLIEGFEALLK

Compound | IC50 [1] [nM] | IC50 [2] [nM]
CN(c1ncnc2[nH]ccc12)[C@H]1CC[C@H](CS(=O)(=O)N2CCCC(CN3CCCC3)C2)CC1 (stereo partly drawn) [Example 8, N-methyl-N-[trans-4-({[3-(pyrrolidin-1-ylmethyl)-piperidin-1-yl]sulfonyl}-methyl)cyclohexyl]-7H-pyrrolo[2,3-d]pyrimidin-4-amine] | 14.8 | 3280
CN(c1ncnc2[nH]ccc12)[C@H]1CC[C@H](CS(=O)(=O)N2CCC(N)CC2)CC1 [Example 11, N-(trans-4-{[(4-amino-piperidin-1-yl)sulfonyl]-methyl}cyclohexyl)-N-methyl-7H-pyrrolo[2,3-d]-pyrimidin-4-amine] | 42.3 | 2270
CN(c1ncnc2[nH]ccc12)[C@H]1CC[C@H](CS(=O)(=O)N2CCC(CS(=O)(=O)CC3CC3)CC2)CC1 [Example 49, N-(trans-4-{[(4-{[(cyclopropylmethyl)sulfonyl]-methyl}piperidin-1-yl)sulfonyl]-methyl}-cyclohexyl)-N-methyl-7H-pyrrolo[2,3-d]pyrimidin-4-amine] | 11.7 | 491
CC[C@H](O)C1CCN(S(=O)(=O)C[C@H]2CC[C@H](N(C)c3ncnc4[nH]ccc34)CC2)CC1 [Example 53, 1-{1-[({trans-4-[methyl(7H-pyrrolo[2,3-d]pyrimidin-4-yl)amino]cyclohexyl}-methyl)sulfonyl]piperidin-4-yl}propan-1-ol] | 22.8 | 673
CN(c1ncnc2[nH]ccc12)[C@H]1CC[C@H](CS(=O)(=O)N2CC(c3cccnc3)C2)CC1 [Example 111, N-methyl-N-(trans-4-{[(3-pyridin-3-ylazetidin-1-yl)sulfonyl]methyl}cyclo-hexyl)-7H-pyrrolo[2,3-d]pyrimidin-4-amine] | 22.7 | 346
CN(c1ncnc2[nH]ccc12)[C@H]1CC[C@H](CS(=O)(=O)N2CC(F)C2)CC1 [Example 112, N-(trans-4-{[(3-fluoroazetidin-1-yl)-sulfonyl]-methyl}-cyclohexyl)-N-methyl-7H-pyrrolo[2,3 d]pyrimidin-4-amine] | 12.5 | 143
CN(c1ncnc2[nH]ccc12)[C@H]1CC[C@H](CS(=O)(=O)N2CCS(=O)(=O)CC2)CC1 [Example 126, N-(trans-4-{[(1,1-dioxidothiomorpholin-4-yl)sulfonyl]methyl}cyclo-hexyl)-N-methyl-7H-pyrrolo[2,3-d]pyrimidin-4-amine] | 19.4 | 587

Now those with a lower IC50 [1], led by results:

IC50 [1] [nM] | IC50 [2] [nM] | Compound
8.34 | 322 | CN(c1ncnc2[nH]ccc12)[C@H]1CC[C@H](CS(=O)(=O)N2CC[C@](C)(O)C2)CC1 [Example 99, 3-methyl-1-[({trans-4-[methyl(7H-pyrrolo[2,3-d]pyrimidin-4-yl)amino]cyclohexyl}methyl)-sulfonyl]pyrrolidin-3-ol]
6.47 | 457 | C[C@H]1CCCN1S(=O)(=O)C[C@H]1CC[C@H](N(C)c2ncnc3[nH]ccc23)CC1 [Example 86, N-methyl-N-(trans-4-{[(2-methylpyrrolidin-1-yl)-sulfonyl]methyl}cyclohexyl)-7H-pyrrolo[2,3-d]-pyrimidin-4-amine]
6.45 | 222 | CN(c1ncnc2[nH]ccc12)[C@H]1CC[C@H](CS(=O)(=O)N2CCC[C@H](C(N)=O)C2)CC1 [Example 59, 1-[({trans-4-[methyl(7H-pyrrolo[2,3-d]pyrimidin-4-yl)amino]cyclohexyl}methyl)-sulfonyl]piperidine-3-carboxamide]
4.73 | 813 | CN(c1ncnc2[nH]ccc12)[C@H]1CC[C@H](CS(=O)(=O)N2CCC[C@H]2CN2CCCC2)CC1 [Example 108, N-methyl-N-[trans-4-({[(2S)-2-(pyrrolidin-1-ylmethyl)pyrrolidin-1-yl]sulfonyl}methyl)cyclo-hexyl]-7H-pyrrolo[2,3-d]pyrimidin-4-amine]
